Results as given in patent US20220016101A1 (ACADIA Pharmaceuticals Inc., priority 2018, published 2022).

System: patients with MDD and an inadequate response to an SSRI or SNRI
Conditions: in vivo

SMILES: CC(C)COc1ccc(CNC(=O)N(Cc2ccc(F)cc2)C2CCN(C)CC2)cc1 [pimavanserin, N-(4-Fluorophenylmethyl)-N-(1-methylpiperidin-4-yl)-N′-(4-(2-methylpropyloxy)phenylmethyl)carbamide]
- deaths reported in the study: no deaths
